Values of other authors in publication PMC10080691, “Enzyme-Responsive Double-Locked Photodynamic Molecular Beacon for Targeted Photodynamic Anticancer Therapy” (Journal of the American Chemical Society, 2023).

Tests used:
[1] = in DMF; reference standard value; cited from earlier work
Text: The singlet oxygen generation efficiency of 1 was then studied and compared with that of 8, 14, and ZnPc in all these media using 1,3-diphenylisobenzofuran (DPBF) as the singlet oxygen probe.[67] The absorbance of DPBF’s absorption at 415 nm (in DMF) or 417 nm (in PBS and the buffer) was monitored during light irradiation (λ > 610 nm). Figures S4–S6 show the changes in the absorption spectra of the mixtures in DMF, PBS, and the buffer, respectively, upon irradiation. It can be seen that in all these media while 8 and ZnPc could effectively sensitize the formation of singlet oxygen to induce su ...

[2] = in DMF; reference standard value; cited from earlier work; remark: listed apart in the source
Text: The electronic absorption and fluorescence spectra of PMB 1 were first recorded in DMF and compared with those of the components 8 and 11, as well as the non-cleavable analogue 14 (Figure S2 and Table 1). […] In ...

[Zn+2].c1ccc2c(c1)-c1nc-2nc2[n-]c(nc3nc([n-]c4nc(n1)-c1ccccc1-4)-c1ccccc1-3)c1ccccc21 [ZnPc, zinc(II) phthalocyanine]
ΦΔ (singlet oxygen quantum yield) of reference [1]: 0.56 | ΦF (fluorescence quantum yield) of reference [2]: 0.28
